Patent US4401660A, “Ester derivatives of 5-O-mycaminosyl tylonolide and method of using same” (Eli Lilly and Company, priority 1981, dated 1983)
Read-outs that look alike come from different tables or passages of the source.

Experiments:
Staphylococcus aureus = test: MIC, broth-dilution microtiter test (Table III); type: cell-based; parameters: unit not given here
Protocol: (§1) The MIC's in Table II were determined by standard agar-dilution assays. The MIC's in Table III were obtained using a conventional broth-dilution microtiter test.

[1] = system: Pasteurella multocida 68C; test: MIC, broth-dilution microtiter test (Table III); type: cell-based; parameters: unit not given here
Protocol: as §1

[2] = system: Pasteurella multocida 17E; test: MIC, broth-dilution microtiter test (Table III); type: cell-based; parameters: unit not given here; conditions: bovine isolate
Protocol: as §1

[3] = system: Pasteurella multocida 22A; test: MIC, broth-dilution microtiter test (Table III); type: cell-based; parameters: unit not given here
Protocol: as §1

[4] = system: Pasteurella haemolytica 22C; test: MIC, broth-dilution microtiter test (Table III); type: cell-based; parameters: unit not given here
Protocol: as §1

[5] = system: Pasteurella multocida 40G; test: MIC, broth-dilution microtiter test (Table III); type: cell-based; parameters: unit not given here
Protocol: as §1

Streptococcus sp. 80 = test: MIC, broth-dilution microtiter test (Table III); type: cell-based; parameters: unit not given here
Protocol: as §1

Mycoplasma gallisepticum = test: MIC, broth-dilution microtiter test (Table III); type: cell-based; parameters: unit not given here
Protocol: as §1

Mycoplasma hyorhinis = test: MIC, broth-dilution microtiter test (Table III); type: cell-based; parameters: unit not given here
Protocol: as §1

[6] = system: Pasteurella haemolytica 41D; test: MIC, broth-dilution microtiter test (Table III); type: cell-based; parameters: unit not given here
Protocol: as §1

[7] = system: Pasteurella haemolytica 23C; test: MIC, broth-dilution microtiter test (Table III); type: cell-based; parameters: unit not given here
Protocol: as §1

[8] = system: Pasteurella multocida 60A; test: MIC, broth-dilution microtiter test (Table III); type: cell-based; parameters: unit not given here; conditions: avian isolate
Protocol: as §1

Mycoplasma synoviae = test: MIC, broth-dilution microtiter test (Table III); type: cell-based; parameters: unit not given here
Protocol: as §1

[9] = system: Staphylococcus aureus X1.1; test: MIC, standard agar-dilution assay (Table II); type: cell-based; parameters: unit not given here
Protocol: as §1

[10] = system: Staphylococcus epidermidis EPI2; test: MIC, standard agar-dilution assay (Table II); type: cell-based; parameters: unit not given here
Protocol: as §1

[11] = system: Staphylococcus aureus V41; test: MIC, standard agar-dilution assay (Table II); type: cell-based; parameters: unit not given here; conditions: Staphylococcus aureus V41, penicillin-resistant strain
Protocol: as §1

[12] = system: Streptococcus Group D 9960; test: MIC, standard agar-dilution assay (Table II); type: cell-based; parameters: unit not given here
Protocol: as §1

[13] = system: Haemophilus influenzae R252; test: MIC, standard agar-dilution assay (Table II); type: cell-based; parameters: unit not given here; conditions: Haemophilus influenzae R252, ampicillin-resistant strain
Protocol: as §1

[14] = system: Staphylococcus epidermidis EPI1; test: MIC, standard agar-dilution assay (Table II); type: cell-based; parameters: unit not given here
Protocol: as §1

[15] = system: Haemophilus influenzae Holt; test: MIC, standard agar-dilution assay (Table II); type: cell-based; parameters: unit not given here; conditions: ampicillin-sensitive strain
Protocol: as §1

[16] = system: Streptococcus pyogenes C203; test: MIC, standard agar-dilution assay (Table II); type: cell-based; parameters: unit not given here
Protocol: as §1

[17] = system: Streptococcus pneumoniae Park I; test: MIC, standard agar-dilution assay (Table II); type: cell-based; parameters: unit not given here
Protocol: as §1

[18] = system: Streptococcus Group D X66; test: MIC, standard agar-dilution assay (Table II); type: cell-based; parameters: unit not given here
Protocol: as §1

[19] = system: Staphylococcus aureus S13E; test: MIC, standard agar-dilution assay (Table II); type: cell-based; parameters: unit not given here
Protocol: as §1

[20] = system: Staphylococcus aureus X400; test: MIC, standard agar-dilution assay (Table II); type: cell-based; parameters: unit not given here; conditions: Staphylococcus aureus X400, methicillin-resistant strain
Protocol: as §1

[21] = system: Streptococcus pyogenes C203; test: ED50 in mice with experimental infections (Table IV); type: in vivo; conditions: Streptococcus pyogenes, doses given 1 and 4 hours postinfection
Outline: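 Mice with experimental infections received test compound twice, at 1 and 4 h postinfection. ED50 is the dose in mg/kg (per administration, ×2) protecting 50% of animals.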

Pasteurella multocida = test: Treatment of Pasteurella infections in chicks (Table V); type: in vivo, one-day-old chicks; conditions: Pasteurella multocida, sc, 4 h; 30 mg/kg by subcutaneous injection one and four hours post challenge; read-out: Deaths in Treated Chicks/Number Treated (converted)
Outline: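 One-day-old chicks challenged subcutaneously with avian P. multocida (0.1 ml of 10^-3 dilution of 20-hour tryptose broth culture). Esters given at 30 mg/kg subcutaneously at 1 and 4 hours post challenge. Untreated infected controls, ten per group.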

[22] = C203, oral, read-out: ED50, Oral
[23] = C203, sc, subcutaneous, read-out: ED50, Subcutaneous

SMILES	minimal inhibitory concentration (MIC) (Staphylococcus aureus)	minimal inhibitory concentration (MIC) [1]	minimal inhibitory concentration (MIC) [2]	minimal inhibitory concentration (MIC) [3]	minimal inhibitory concentration (MIC) [4]	minimal inhibitory concentration (MIC) [5]	minimal inhibitory concentration (MIC) (Streptococcus sp. 80)	minimal inhibitory concentration (MIC) (Mycoplasma gallisepticum)	minimal inhibitory concentration (MIC) (Mycoplasma hyorhinis)	minimal inhibitory concentration (MIC) [6]	minimal inhibitory concentration (MIC) [7]	minimal inhibitory concentration (MIC) [8]	minimal inhibitory concentration (MIC) (Mycoplasma synoviae)	minimal inhibitory concentration (MIC) [9]	minimal inhibitory concentration (MIC) [10]	minimal inhibitory concentration (MIC) [11]	minimal inhibitory concentration (MIC) [12]	minimal inhibitory concentration (MIC) [13]	minimal inhibitory concentration (MIC) [14]	minimal inhibitory concentration (MIC) [15]	also measured
CCC1OC(=O)CC(O)C(C)C(OC2OC(C)C(O)C(N(C)C)C2O)C(CC=O)CC(C)C(=O)C=CC(C)=CC1COC(=O)OC (centres unmarked) [Compound 74]	1.56	12.5	1.56	25	6.25	12.5	0.39	< 0.048	0.78	1.56	3.12	1.56	0.195	0.25	0.25	0.25	0.25	2	0.25	1	minimal inhibitory concentration (MIC) [16]: 0.25; minimal inhibitory concentration (MIC) [17]: 0.03; minimal inhibitory concentration (MIC) [18]: 0.5; minimal inhibitory concentration (MIC) [19]: 0.25; minimal inhibitory concentration (MIC) [20]: 0.5; ED50 [21, 22]: > 100 mg/kg; ED50 [21, 23]: 3 mg/kg; mortality at 30 mg/kg (Pasteurella multocida): 0%
CCC1OC(=O)CC(O)C(C)C(OC2OC(C)C(OC(C)=O)C(N(C)C)C2OC(C)=O)C(CC=O)CC(C)C(=O)C=CC(C)=CC1COC(=O)Cc1ccccc1 (centres unmarked) [Compound 27, 2',4'-Di-O-acetyl-23-O-phenylacetyl-OMT]	0.097	1.56	1.56	3.12	3.12	3.12	0.05	0.05	0.097	3.12	3.12	0.78	0.05	0.25	0.25	0.25	0.125	1	0.25	1	minimal inhibitory concentration (MIC) [16]: 0.06; minimal inhibitory concentration (MIC) [17]: 0.03; minimal inhibitory concentration (MIC) [18]: 0.125; minimal inhibitory concentration (MIC) [19]: 0.25; minimal inhibitory concentration (MIC) [20]: 0.25; ED50 [21, 22]: 159 mg/kg; ED50 [21, 23]: > 30 mg/kg; mortality at 30 mg/kg (Pasteurella multocida): 90%
CCC1OC(=O)CC(O)C(C)C(OC2OC(C)C(OC(C)=O)C(N(C)C)C2OC(C)=O)C(CC=O)CC(C)C(=O)C=CC(C)=CC1CO (centres unmarked) [Compound 3, 2',4'-Di-O-acetyl-OMT]	1.56	1.56	3.12	3.12	12.5	6.25	< 0.78	0.78	3.12	6.25	6.25	3.12	0.195	2	1	4	2	4	1	2	minimal inhibitory concentration (MIC) [16]: 0.5; minimal inhibitory concentration (MIC) [17]: 0.25; minimal inhibitory concentration (MIC) [18]: 2; minimal inhibitory concentration (MIC) [19]: 2; minimal inhibitory concentration (MIC) [20]: 4; ED50 [21, 22]: 139 mg/kg; ED50 [21, 23]: > 15 mg/kg; mortality at 30 mg/kg (Pasteurella multocida): 0%
CCC1OC(=O)CC(O)C(C)C(OC2OC(C)C(O)C(N(C)C)C2OC(C)=O)C(CC=O)CC(C)C(=O)C=CC(C)=CC1CO (centres unmarked) [Compound 1, 2'-O-Acetyl-OMT]	1.56	3.12	1.56	3.12	12.5	6.25	0.78	0.39	3.12	12.5	12.5	1.56	0.39	2	2	4	4	4	2	4	minimal inhibitory concentration (MIC) [16]: 0.5; minimal inhibitory concentration (MIC) [17]: 0.5; minimal inhibitory concentration (MIC) [18]: 2; minimal inhibitory concentration (MIC) [19]: 4; minimal inhibitory concentration (MIC) [20]: 4; ED50 [21, 22]: > 150 mg/kg; ED50 [21, 23]: 6.8 mg/kg; mortality at 30 mg/kg (Pasteurella multocida): 0%
CCC1OC(=O)CC(O)C(C)C(OC2OC(C)C(O)C(N(C)C)C2O)C(CC=O)CC(C)C(=O)C=CC(C)=CC1COC(=O)CCCC(=O)OC (centres unmarked) [Compound 72]	1.56	3.12	6.25	3.12	12.5	3.12	1.56	0.195	25	12.5	6.25	3.12	0.78	0.125	0.25	0.25	0.25	1	0.25	2	minimal inhibitory concentration (MIC) [16]: 0.125; minimal inhibitory concentration (MIC) [17]: 0.03; minimal inhibitory concentration (MIC) [18]: 0.25; minimal inhibitory concentration (MIC) [19]: 0.25; minimal inhibitory concentration (MIC) [20]: 0.25; ED50 [21, 22]: 87 mg/kg; ED50 [21, 23]: 2.3 mg/kg; mortality at 30 mg/kg (Pasteurella multocida): 50%
